The values that follow come from patent US11555010B2, “Diamide antimicrobial agents” (BROWN UNIVERSITY, priority 2019, dated 2023).

Values after ≈ are worked out from the molar mass of the structure shown.

The subject of one test is B. subtilis. In words: Resazurin antimicrobial MIC assay. Format: cell-based. The conditions noted are these: Bacillus subtilis, read-out: Apparent MIC Value. The method, then:
Bacillus subtilis ATCC 11775 was plated on agar from a 20% glycerol stock solution stored at −80′° C. Inoculated plates were then incubated at 37° C. under aerobic conditions for 16 hours. Single cultures were transferred to Nutrient Broth (NB) and cultured for 16 hours under the same conditions. […] The assay is performed in LB broth. […] Compounds are tested […] for their capacity to inhibit B. subtilis growth. In order to determine growth inhibition, a resazurin whole-cell assay was used (Kuhn, et al., 2014, Medchemcomm 5:1213-1217). Briefly, second-passage bacteria are incubated with inhibitor in a 96-well plate for four hours, then resazurin dye is added and color/fluorescence change is observed. The resazurin is naturally a blue color, but with reductive species produced during bacterial growth, it is reduced to resorufin, which appears pink. Resorufin is also fluorescent and can be measured by a plate-reader. The disclosures of each and every patent, patent application, and publication cited herein are hereby incorporated herein by reference in their entirety.

Test [1] has as its system E. Coli. As to the kind of experiment: Resazurin antimicrobial MIC assay. The conditions noted are these: Escherichia coli, read-out: Apparent MIC Value.
Description: The assay is performed in LB broth. Resazurin sodium salt powder is prepared in distilled water and filter sterilized at 0.001% (w/v) for MIC assays and at 0.01% (w/v) for single concentration assays. Compounds are first screened in MIC assays to assess whether growth inhibition is dependent on inhibitor concentration. The plates are incubated for 30 min under aerobic conditions. Growth controls containing no inhibitory compound, sterility controls without inoculation, and controls containing a known antibiotic, chloramphenicol, are also included. […] Minimum inhibitory concentration (MIC) was determined as the lowest drug concentration that prevented the color change from blue to pink. Inhibition was quantified by observation of color change. […] Inhibition was quantified by fluorescence readings from plate reader SAFIRE, Firmware: V 2.2008/02 Safire. […] Plates are held at 37° C. and fluorescence measurements are taken at 0, 5, 10, 20, 30, and 60 min after addition of dye. Lower fluorescence values correlate to greater degrees of inhibition.
Briefly, second passage cells of B. subtilis 11774 were grown in LB media and standardized to an OD600 nm=1.0. Diamides were analyzed via serial dilution into LB media in microtitre plates. […] MICs were read directly off the plate or via fluorescence (λex 560 nm, λem 590 nm). MICs were recorded as the lowest concentration that inhibited growth.
For test [2], the system named is E. coli. Particulars: cited from earlier work.

Regarding `CC(N)C(C(=O)NC1CCCCC1)N(C(=O)c1ccccc1I)C1CCCCC1` (stereo not shown) [Example 2], the minimum inhibitory concentration (MIC) with B. subtilis is 5 µM (≈ 2.56 µg/mL).

`O=C(NC1CCCCC1)C(C1CCNCC1)N(C(=O)c1ccccc1I)C1CCCCC1` (stereo not shown) [Example 6, N-cyclohexyl-N-(2-(cyclohexylamino)-2-oxo-1-(piperidin-4-yl)ethyl)-2-iodobenzamide]: the MIC in the test with E. Coli [1] amounted to 5 µM (≈ 2.76 µg/mL).

On to `CC1=N[C@@H]2[C@@H](O)[C@H](O)[C@@H](CO)O[C@@H]2S1` [NAG-thiazoline], for which, in the test on E. coli [2], the “effect on the viability of E. coli” value is on record as “no effect”.

Take `NCC(C(=O)NC1CCCCC1)N(C(=O)c1ccccc1I)C1CCCCC1` (stereo not shown) [Example 3, N-(3-amino-1-(cyclohexylamino)-1-oxopropan-2-yl)-N-cyclohexyl-2-iodobenzamide]: in the test on B. subtilis, the MIC amounted to 5 µM (≈ 2.49 µg/mL).

In general, MIC refers to the lowest concentration found to suppress growth.
